Data as given in paper PMC10114980, “Triple targeting of mutant EGFR^L858R/T790M, COX-2, and 15-LOX: design and synthesis of novel quinazolinone tethered phenyl urea derivatives for anti-inflammatory and anticancer evaluation” (Journal of Enzyme Inhibition and Medicinal Chemistry, 2023).

Tests used:
[1] = system: LPS-induced NO production in RAW 264.7 cells; assay: NO production in LPS-activated RAW 264.7 macrophage cells (DAF-FM diacetate); assay type: cell-based; details: LPS-activated RAW 264.7 cells, mean ± SEM, three replicates; for IC50: Mus musculus, RAW264.7
Protocol: TNF-α and IL-6 production were detected in RAW 264.7 macrophage cell culture supernatants following the induction of inflammation by LPS. Moreover, the probes of oxidative species 2,7-dichlorofluorescein diacetate (DCFH-DA) (Molecular Probes) and NO, 4-amino-5-methylamino-2,7-difluorofluorescein diacetate (DAF-FM diacetate) (Molecular Probes) were used to investigate the antioxidant and NO production inhibitory potential of the test compounds. Briefly, RAW 264.7 cells were cultured in black 96 well plates (200 000 cells/mL, 100 µl/well) for 24 h followed by the incubation with the individual test compounds or the reference drugs at different concentrations (12.5, 25, 50, and 100 µM) for 2 h at 37 °C. LPS was then added at a final concentration of 1 µg/mL for an additional 18 h. The cell culture supernatant was collected from cells treated with the different compounds at 25 µM to measure TNF-α and IL-6 levels (1:10 dilution) using DuoSet ELISA kits (R&D Systems, Minneapolis, MN) following the manufacturer’s instructions. Then, the plates were washed to perform ROS and NO detection assays as detailed in our previous studies[16]^,[27].

[2] = target: T1, double mutant EGFR^L858R/T790M (Homo sapiens, UniProt P00533, L858R/T790M); assay: In vitro EGFR inhibition assay, double mutant; assay type: biochemical; details: for IC50: double mutant EGFR; for Selectivity (SI): ratio of the IC50 values EGFR^WT/EGFR^L858R/T790M
T1 construct: purchased AssayQuant Technologies, Inc. (Marlboro, MA, USA)

MDA-MB-231/ATCC = assay: NCI single dose screen, MDA-MB-231/ATCC; assay type: cell-based; details: Homo sapiens, breast cancer, single dose 10^−5 M, read-out: growth inhibition percentage
Protocol: (§1) Screening of the anticancer activity of the newly synthesised compounds (6a, 6c, 6d, 6e, 6j, 6l, 6m, 6n, 6o, and 6p) was performed by the US National Cancer Institute (NCI) using 60 different human tumour cell lines in accordance with standard procedures formerly reported.
(§2) In vitro anticancer screening was carried out for the selected compounds at a single dose (10^−5 M) against 60 different human tumour cell lines of nine different cancer cell types: leukaemia, lung, colon, CNS, melanoma, ovarian, renal, prostate, and breast cancers.

UACC-62 = assay: NCI single dose screen, UACC-62; assay type: cell-based; details: Homo sapiens; UACC-62, melanoma; single dose 10^−5 M; read-out: growth inhibition percentage
Protocol: as §1, §2

HCC-2998 = assay: NCI single dose screen, HCC-2998; assay type: cell-based; details: Homo sapiens; HCC-2998, colon cancer; single dose 10^−5 M; read-out: growth inhibition percentage
Protocol: as §1, §2

SK-MEL-28 = assay: NCI single dose screen, SK-MEL-28; assay type: cell-based; details: Homo sapiens; SK-MEL-28, melanoma; single dose 10^−5 M; read-out: growth inhibition percentage
Protocol: as §1, §2

SF-295 = assay: NCI single dose screen, SF-295; assay type: cell-based; details: Homo sapiens; SF-295, CNS cancer; single dose 10^−5 M; read-out: growth inhibition percentage
Protocol: as §1, §2

MDA-MB-468 = assay: NCI single dose screen, MDA-MB-468; assay type: cell-based; details: Homo sapiens; MDA-MB-468, breast cancer; single dose 10^−5 M; read-out: growth inhibition percentage
Protocol: as §1, §2

PC-3 = assay: NCI single dose screen, PC-3; assay type: cell-based; details: Homo sapiens; PC-3, prostate cancer; single dose 10^−5 M; read-out: growth inhibition percentage
Protocol: as §1, §2

BT-549 = assay: NCI single dose screen, BT-549; assay type: cell-based; details: Homo sapiens; BT-549, breast cancer; single dose 10^−5 M; read-out: growth inhibition percentage
Protocol: as §1, §2

HS 578T = assay: NCI single dose screen, HS 578T; assay type: cell-based; details: Homo sapiens, breast cancer, single dose 10^−5 M, read-out: growth inhibition percentage
Protocol: as §1, §2

SR = assay: NCI single dose screen, SR; assay type: cell-based; details: Homo sapiens, leukaemia, single dose 10^−5 M, read-out: growth inhibition percentage
Protocol: as §1, §2

RXF 393 = assay: NCI single dose screen, RXF 393; assay type: cell-based; details: Homo sapiens; RXF 393, renal cancer; single dose 10^−5 M; read-out: growth inhibition percentage
Protocol: as §1, §2

SK-MEL-5 = assay: NCI single dose screen, SK-MEL-5; assay type: cell-based; details: Homo sapiens; SK-MEL-5, melanoma; single dose 10^−5 M; read-out: growth inhibition percentage
Protocol: as §1, §2

MCF7 = assay: NCI single dose screen, MCF7; assay type: cell-based; details: Homo sapiens; MCF7, breast cancer; single dose 10^−5 M; read-out: growth inhibition percentage
Protocol: as §1, §2

RPMI-8226 = assay: NCI single dose screen, RPMI-8226; assay type: cell-based; details: Homo sapiens; RPMI-8226, leukaemia; single dose 10^−5 M; read-out: growth inhibition percentage
Protocol: as §1, §2

[3] = system: LPS-induced IL-6 production in RAW 264.7 cells; assay: IL-6 production in LPS-activated RAW 264.7 cells (ELISA); assay type: cell-based; details: LPS-activated RAW 264.7 cells treated with 25 µM of the compound
K-562 = assay: NCI single dose screen, K-562; assay type: cell-based; details: Homo sapiens, K562; K-562, leukaemia; single dose 10^−5 M; read-out: growth inhibition percentage
Protocol: as §1, §2

UO-31 = assay: NCI single dose screen, UO-31; assay type: cell-based; details: Homo sapiens; UO-31, renal cancer; single dose 10^−5 M; read-out: growth inhibition percentage
Protocol: as §1, §2

HT29 = assay: NCI single dose screen, HT29; assay type: cell-based; details: Homo sapiens, HT-29; HT29, colon cancer; single dose 10^−5 M; read-out: growth inhibition percentage
Protocol: as §1, §2

SK-OV-3 = assay: NCI single dose screen, SK-OV-3; assay type: cell-based; details: Homo sapiens; SK-OV-3, ovarian cancer; single dose 10^−5 M; read-out: growth inhibition percentage
Protocol: as §1, §2

SNB-19 = assay: NCI single dose screen, SNB-19; assay type: cell-based; details: Homo sapiens; SNB-19, CNS cancer; single dose 10^−5 M; read-out: growth inhibition percentage
Protocol: as §1, §2

EKVX = assay: NCI single dose screen, EKVX; assay type: cell-based; details: Homo sapiens, non-small cell lung cancer, single dose 10^−5 M, read-out: growth inhibition percentage
Protocol: as §1, §2

SF-539 = assay: NCI single dose screen, SF-539; assay type: cell-based; details: Homo sapiens, read-out: growth inhibition percentage
Protocol: as §1, §2

OVCAR-4 = assay: NCI single dose screen, OVCAR-4; assay type: cell-based; details: Homo sapiens; OVCAR-4, ovarian cancer; single dose 10^−5 M; read-out: growth inhibition percentage
Protocol: as §1, §2

T1 sequence (P00533 25-1210 T790M/L858R): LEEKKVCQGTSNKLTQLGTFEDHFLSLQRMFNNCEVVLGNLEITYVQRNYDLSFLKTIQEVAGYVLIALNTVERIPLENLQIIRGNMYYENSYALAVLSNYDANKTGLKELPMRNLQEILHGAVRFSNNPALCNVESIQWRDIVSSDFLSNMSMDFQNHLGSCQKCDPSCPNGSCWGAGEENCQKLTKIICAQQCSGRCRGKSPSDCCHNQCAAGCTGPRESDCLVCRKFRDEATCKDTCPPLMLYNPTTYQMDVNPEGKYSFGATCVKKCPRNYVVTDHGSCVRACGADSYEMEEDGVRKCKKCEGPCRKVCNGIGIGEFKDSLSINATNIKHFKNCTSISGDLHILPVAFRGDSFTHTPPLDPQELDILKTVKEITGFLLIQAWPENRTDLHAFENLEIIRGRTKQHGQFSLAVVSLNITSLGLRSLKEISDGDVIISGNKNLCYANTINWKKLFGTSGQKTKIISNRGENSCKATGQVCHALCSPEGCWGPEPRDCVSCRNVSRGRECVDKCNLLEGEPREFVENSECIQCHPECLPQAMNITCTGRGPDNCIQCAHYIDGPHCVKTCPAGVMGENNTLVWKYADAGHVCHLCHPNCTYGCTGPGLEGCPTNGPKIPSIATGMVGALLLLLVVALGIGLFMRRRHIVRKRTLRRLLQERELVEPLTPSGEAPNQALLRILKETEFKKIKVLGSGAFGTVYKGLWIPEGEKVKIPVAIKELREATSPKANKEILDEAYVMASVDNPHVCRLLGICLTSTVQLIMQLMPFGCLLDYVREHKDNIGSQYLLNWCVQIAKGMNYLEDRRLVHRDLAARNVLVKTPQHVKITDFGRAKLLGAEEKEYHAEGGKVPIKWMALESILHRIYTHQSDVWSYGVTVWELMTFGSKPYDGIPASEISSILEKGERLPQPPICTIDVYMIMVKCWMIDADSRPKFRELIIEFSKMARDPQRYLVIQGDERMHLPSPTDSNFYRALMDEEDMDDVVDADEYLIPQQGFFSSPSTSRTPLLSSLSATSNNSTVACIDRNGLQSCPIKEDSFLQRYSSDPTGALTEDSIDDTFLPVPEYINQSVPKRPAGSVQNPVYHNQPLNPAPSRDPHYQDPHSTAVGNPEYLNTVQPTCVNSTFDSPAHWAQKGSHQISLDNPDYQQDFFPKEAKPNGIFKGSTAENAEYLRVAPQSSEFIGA

SMILES	IC50 [1] [µM]	IC50 [2] [µM]	Selectivity (SI) [2]	inhibition at 10 µM (MDA-MB-231/ATCC) [%]	inhibition at 10 µM (UACC-62) [%]	inhibition at 10 µM (HCC-2998) [%]	inhibition at 10 µM (SK-MEL-28) [%]	inhibition at 10 µM (SF-295) [%]	inhibition at 10 µM (MDA-MB-468) [%]	inhibition at 10 µM (PC-3) [%]	inhibition at 10 µM (BT-549) [%]	inhibition at 10 µM (HS 578T) [%]	inhibition at 10 µM (SR) [%]	inhibition at 10 µM (RXF 393) [%]	inhibition at 10 µM (SK-MEL-5) [%]	inhibition at 10 µM (MCF7) [%]	inhibition at 10 µM (RPMI-8226) [%]	IL-6 concentration [3] [pg/mL]	inhibition at 10 µM (K-562) [%]	melting point [°C]	further results
CN1CN(NC(=O)Nc2ccccc2)C(=O)c2ccccc21 [Compound 6a, 1-(1-Methyl-4-oxo-1,4-dihydroquinazolin-3(2H)-yl)-3-phenylurea]	0.97 ± 1.67	0.46 ± 1.11	>217	< 10	< 10	< 10	< 10	< 10	< 10	< 10	< 10	< 10	< 10	< 10	< 10	< 10	< 10	173.7 ± 4.77	< 10	240 to 241	inhibition at 10 µM (UO-31): < 10%; inhibition at 10 µM (HT29): < 10%; inhibition at 10 µM (SK-OV-3): < 10%; inhibition at 10 µM (SNB-19): < 10%; inhibition at 10 µM (EKVX): < 10%; inhibition at 10 µM (SF-539): < 10%; inhibition at 10 µM (OVCAR-4): < 10%
CN1c2ccccc2C(=O)N(NC(=O)Nc2ccccc2)C1c1ccccc1 (stereo not shown) [Compound 6c, 1-(1-Methyl-4-oxo-2-phenyl-1,4-dihydroquinazolin-3(2H)-yl)-3-phenylurea]	1.54 ± 1.02	7.93 ± 1.11	>12.6	< 10	< 10	< 10	< 10	< 10	< 10	< 10	< 10	56.8	< 10	< 10	< 10	< 10	< 10	468.4 ± 87.46	< 10	180 to 181	inhibition at 10 µM (UO-31): 19.5%; inhibition at 10 µM (HT29): < 10%; inhibition at 10 µM (SK-OV-3): < 10%; inhibition at 10 µM (SNB-19): < 10%; inhibition at 10 µM (EKVX): < 10%; inhibition at 10 µM (SF-539): < 10%; inhibition at 10 µM (OVCAR-4): < 10%
CN1c2ccccc2C(=O)N(NC(=O)Nc2ccccc2)C1c1ccc(F)cc1 (stereo not shown) [Compound 6d, 1-(2-(4-Fluorophenyl)-1-methyl-4-oxo-1,4-dihydroquinazolin-3(2H)-yl)-3-phenylurea]	4.12 ± 0.65	5.57 ± 1.78	>17.9	< 10	15.1	< 10	< 10	< 10	< 10	18.6	< 10	< 10	< 10	< 10	< 10	< 10	< 10	358.7 ± 12.85	< 10	230 to 232	inhibition at 10 µM (UO-31): 36.2%; inhibition at 10 µM (HT29): < 10%; inhibition at 10 µM (SK-OV-3): < 10%; inhibition at 10 µM (SNB-19): < 10%; inhibition at 10 µM (EKVX): < 10%; inhibition at 10 µM (SF-539): < 10%; inhibition at 10 µM (OVCAR-4): < 10%
CN1c2ccccc2C(=O)N(NC(=O)Nc2ccccc2)C1c1ccc([N+](=O)[O-])cc1 (stereo not shown) [Compound 6e, 1-(1-Methyl-2-(4-nitrophenyl)-4-oxo-1,4-dihydroquinazolin-3(2H)-yl)-3-phenylurea]	> 100	5.48 ± 1.33	8.9	< 10	< 10	< 10	< 10	< 10	< 10	< 10	67.1	< 10	< 10	< 10	< 10	< 10	< 10	198.8 ± 6.08	< 10	241 to 243	NO IC50 [1]: did not show any significant NO inhibitory activity; inhibition at 10 µM (UO-31): 14.4%; inhibition at 10 µM (HT29): < 10%; inhibition at 10 µM (SK-OV-3): < 10%; inhibition at 10 µM (SNB-19): < 10%; inhibition at 10 µM (EKVX): < 10%; inhibition at 10 µM (SF-539): < 10%; inhibition at 10 µM (OVCAR-4): < 10%
COc1ccc(NC(=O)NN2C(=O)c3ccccc3N(C)C2c2ccc(OC)cc2)cc1 (stereo not shown) [Compound 6j, 1-(4-Methoxyphenyl)-3-(2-(4-methoxyphenyl)-1-methyl-4-oxo-1,4-dihydroquinazolin-3(2H)-yl)urea]	13.5 ± 0.29	4.03 ± 1.43	>24.8	< 10	< 10	< 10	< 10	< 10	< 10	10.8	70.1	< 10	11.6	< 10	< 10	< 10	< 10	164.6 ± 5.09	< 10	205 to 207	inhibition at 10 µM (UO-31): 24.6%; inhibition at 10 µM (HT29): < 10%; inhibition at 10 µM (SK-OV-3): < 10%; inhibition at 10 µM (SNB-19): < 10%; inhibition at 10 µM (EKVX): < 10%; inhibition at 10 µM (SF-539): < 10%; inhibition at 10 µM (OVCAR-4): < 10%
